Measurements: ChEMBL document CHEMBL3045112, “In vitro antimicrobial assessment of coumarin-based s-triazinyl piperazines” (2012)
In brackets after ≈: the same amount, converted by molar mass.

How the values were obtained:
Assay type in all cases: functional
Pseudomonas aeruginosa [1] = assay: Antibacterial activity against Pseudomonas aeruginosa after 24 hr by disk diffusion test
Bacillus subtilis [2] = assay: Antibacterial activity against Bacillus subtilis after 24 hr by agar plate method
Candida albicans [3] = assay: Antifungal activity against Candida albicans after 48 hr by disk diffusion test
Aspergillus niger [4] = assay: Antifungal activity against Aspergillus niger after 48 hr by agar plate method
Aspergillus niger [5] = assay: Antifungal activity against Aspergillus niger after 48 hr by disk diffusion test
Escherichia coli [6] = assay: Antibacterial activity against Escherichia coli after 24 hr by agar plate method
Bacillus subtilis [7] = assay: Antibacterial activity against Bacillus subtilis after 24 hr by disk diffusion test
Escherichia coli [8] = assay: Antibacterial activity against Escherichia coli after 24 hr by disk diffusion test
Staphylococcus aureus [9] = assay: Antibacterial activity against Staphylococcus aureus after 24 hr by disk diffusion test
Candida albicans [10] = assay: Antifungal activity against Candida albicans after 48 hr by agar plate method
Staphylococcus aureus [11] = assay: Antibacterial activity against Staphylococcus aureus after 24 hr by agar plate method
Pseudomonas aeruginosa [12] = assay: Antibacterial activity against Pseudomonas aeruginosa after 24 hr by agar plate method

Row | SMILES | MIC (Bacillus subtilis [2]) [µg/mL] | MIC (Aspergillus niger [4]) [µg/mL] | MIC (Escherichia coli [6]) [µg/mL] | MIC (Candida albicans [10]) [µg/mL] | MIC (Staphylococcus aureus [11]) [µg/mL] | MIC (Pseudomonas aeruginosa [12]) [µg/mL] | inhibition zone (IZ) (Pseudomonas aeruginosa [1]) [mm] | inhibition zone (IZ) (Candida albicans [3]) [mm] | inhibition zone (IZ) (Aspergillus niger [5]) [mm] | inhibition zone (IZ) (Bacillus subtilis [7]) [mm] | inhibition zone (IZ) (Escherichia coli [8]) [mm] | inhibition zone (IZ) (Staphylococcus aureus [9]) [mm]
1 | CCN1CCN(c2nc(Nc3ccccc3)nc(Oc3cc(=O)oc4ccccc34)n2)CC1 | 50 (≈ 112 µM) | 100 (≈ 225 µM) | 100 (≈ 225 µM) | 100 (≈ 225 µM) | 100 (≈ 225 µM) | 100 (≈ 225 µM) | 18 | 19 | 17 | 20 | 15 | 17
2 | O=c1cc(Oc2nc(Nc3ccccc3)nc(N3CCOCC3)n2)c2ccccc2o1 | 100 (≈ 240 µM) | 6.25 (≈ 15 µM) | 25 (≈ 59.9 µM) | 100 (≈ 240 µM) | 100 (≈ 240 µM) | 100 (≈ 240 µM) | 17 | 19 | 21 | 16 | 22 | 19
3 | O=c1cc(Oc2nc(Nc3ccccc3)nc(N3CCN(c4ccccn4)CC3)n2)c2ccccc2o1 | 25 (≈ 50.7 µM) | 12.5 (≈ 25.3 µM) | 25 (≈ 50.7 µM) | 25 (≈ 50.7 µM) | 12.5 (≈ 25.3 µM) | 50 (≈ 101 µM) | 20 | 21 | 20 | 21 | 20 | 23
4 | CN1CCN(c2nc(Nc3ccccc3)nc(Oc3cc(=O)oc4ccccc34)n2)CC1 | 100 (≈ 232 µM) | 100 (≈ 232 µM) | 100 (≈ 232 µM) | 100 (≈ 232 µM) | 100 (≈ 232 µM) | 100 (≈ 232 µM) | 17 | 17 | 14 | 20 | 16 | 16
5 | O=c1cc(Oc2nc(Nc3ccccc3)nc(N3CCCCC3)n2)c2ccccc2o1 | 50 (≈ 120 µM) | 12.5 (≈ 30.1 µM) | 25 (≈ 60.2 µM) | 100 (≈ 241 µM) | 100 (≈ 241 µM) | 100 (≈ 241 µM) | 16 | 20 | 21 | 20 | 22 | 19
6 | CC(=O)N1CCN(c2nc(Nc3ccccc3)nc(Oc3cc(=O)oc4ccccc34)n2)CC1 | 100 (≈ 218 µM) | 100 (≈ 218 µM) | 12.5 (≈ 27.3 µM) | 50 (≈ 109 µM) | 25 (≈ 54.5 µM) | 50 (≈ 109 µM) | 22 | 20 | 18 | 20 | 22 | 23
7 | CC(C)N1CCN(c2nc(Nc3ccccc3)nc(Oc3cc(=O)oc4ccccc34)n2)CC1 | 50 (≈ 109 µM) | 25 (≈ 54.5 µM) | 100 (≈ 218 µM) | 100 (≈ 218 µM) | 100 (≈ 218 µM) | 100 (≈ 218 µM) | 18 | 17 | 21 | 18 | 18 | 20
8 | O=c1cc(Oc2nc(Nc3ccccc3)nc(N3CCN(c4ncccn4)CC3)n2)c2ccccc2o1 | 12.5 (≈ 25.3 µM) | 12.5 (≈ 25.3 µM) | 50 (≈ 101 µM) | 12.5 (≈ 25.3 µM) | 12.5 (≈ 25.3 µM) | 50 (≈ 101 µM) | 20 | 22 | 19 | 22 | 21 | 23
9 | O=c1cc(Oc2nc(Nc3ccccc3)nc(N3CCN(c4cccc(Cl)c4)CC3)n2)c2ccccc2o1 | 25 (≈ 47.4 µM) | 50 (≈ 94.9 µM) | 25 (≈ 47.4 µM) | 12.5 (≈ 23.7 µM) | 50 (≈ 94.9 µM) | 25 (≈ 47.4 µM) | 23 | 23 | 20 | 21 | 22 | 21
10 | O=c1cc(Oc2nc(Nc3ccccc3)nc(N3CCN(c4ccccc4)CC3)n2)c2ccccc2o1 | 100 (≈ 203 µM) | 100 (≈ 203 µM) | 100 (≈ 203 µM) | 100 (≈ 203 µM) | 100 (≈ 203 µM) | 100 (≈ 203 µM) | 15 | 16 | 15 | 17 | 16 | 17

Now from value to molecule, other results behind:

Row | MIC (Bacillus subtilis [2]) [µg/mL] | MIC (Aspergillus niger [4]) [µg/mL] | MIC (Escherichia coli [6]) [µg/mL] | MIC (Candida albicans [10]) [µg/mL] | MIC (Staphylococcus aureus [11]) [µg/mL] | MIC (Pseudomonas aeruginosa [12]) [µg/mL] | SMILES | inhibition zone (IZ) (Pseudomonas aeruginosa [1]) [mm] | inhibition zone (IZ) (Candida albicans [3]) [mm] | inhibition zone (IZ) (Aspergillus niger [5]) [mm] | inhibition zone (IZ) (Bacillus subtilis [7]) [mm] | inhibition zone (IZ) (Escherichia coli [8]) [mm] | inhibition zone (IZ) (Staphylococcus aureus [9]) [mm]
11 | 50 (≈ 109 µM) | 100 (≈ 218 µM) | 100 (≈ 218 µM) | 100 (≈ 218 µM) | 100 (≈ 218 µM) | 100 (≈ 218 µM) | CCN1CCN(c2nc(Nc3ccccc3)nc(Oc3ccc4c(C)cc(=O)oc4c3)n2)CC1 | 21 | 20 | 20 | 21 | 16 | 17
12 | 12.5 (≈ 24.6 µM) | 25 (≈ 49.2 µM) | 25 (≈ 49.2 µM) | 25 (≈ 49.2 µM) | 6.25 (≈ 12.3 µM) | 50 (≈ 98.3 µM) | Cc1cc(=O)oc2cc(Oc3nc(Nc4ccccc4)nc(N4CCN(c5ncccn5)CC4)n3)ccc12 | 23 | 24 | 22 | 24 | 21 | 24
13 | 100 (≈ 212 µM) | 100 (≈ 212 µM) | 100 (≈ 212 µM) | 100 (≈ 212 µM) | 100 (≈ 212 µM) | 100 (≈ 212 µM) | Cc1cc(=O)oc2cc(Oc3nc(Nc4ccccc4)nc(N4CCN(C(C)C)CC4)n3)ccc12 | 18 | 19 | 19 | 18 | 18 | 19
14 | 12.5 (≈ 21.7 µM) | 12.5 (≈ 21.7 µM) | 12.5 (≈ 21.7 µM) | 12.5 (≈ 21.7 µM) | 25 (≈ 43.4 µM) | 12.5 (≈ 21.7 µM) | Cc1cc(=O)oc2cc(Oc3nc(Nc4ccccc4)nc(N4CCN(c5cccc(Cl)c5Cl)CC4)n3)ccc12 | 24 | 25 | 23 | 25 | 23 | 24
15 | 12.5 (≈ 24.6 µM) | 12.5 (≈ 24.6 µM) | 25 (≈ 49.3 µM) | 25 (≈ 49.3 µM) | 12.5 (≈ 24.6 µM) | 50 (≈ 98.5 µM) | Cc1cc(=O)oc2cc(Oc3nc(Nc4ccccc4)nc(N4CCN(c5ccccn5)CC4)n3)ccc12 | 22 | 23 | 23 | 24 | 22 | 23
16 | 100 (≈ 233 µM) | 12.5 (≈ 29.1 µM) | 25 (≈ 58.2 µM) | 50 (≈ 116 µM) | 50 (≈ 116 µM) | 100 (≈ 233 µM) | Cc1cc(=O)oc2cc(Oc3nc(Nc4ccccc4)nc(N4CCCCC4)n3)ccc12 | 21 | 22 | 22 | 19 | 22 | 21
17 | 12.5 (≈ 22.3 µM) | 12.5 (≈ 22.3 µM) | 50 (≈ 89.1 µM) | 12.5 (≈ 22.3 µM) | 25 (≈ 44.5 µM) | 12.5 (≈ 22.3 µM) | O=c1cc(Oc2nc(Nc3ccccc3)nc(N3CCN(c4cccc(Cl)c4Cl)CC3)n2)c2ccccc2o1 | 23 | 22 | 20 | 23 | 21 | 22
18 | 100 (≈ 197 µM) | 100 (≈ 197 µM) | 100 (≈ 197 µM) | 100 (≈ 197 µM) | 100 (≈ 197 µM) | 100 (≈ 197 µM) | Cc1cc(=O)oc2cc(Oc3nc(Nc4ccccc4)nc(N4CCN(c5ccccc5)CC4)n3)ccc12 | 15 | 18 | 17 | 20 | 17 | 17
19 | 50 (≈ 92.4 µM) | 25 (≈ 46.2 µM) | 25 (≈ 46.2 µM) | 12.5 (≈ 23.1 µM) | 25 (≈ 46.2 µM) | 12.5 (≈ 23.1 µM) | Cc1cc(=O)oc2cc(Oc3nc(Nc4ccccc4)nc(N4CCN(c5cccc(Cl)c5)CC4)n3)ccc12 | 24 | 25 | 23 | 23 | 22 | 22
20 | 100 (≈ 232 µM) | 50 (≈ 116 µM) | 50 (≈ 116 µM) | 50 (≈ 116 µM) | 100 (≈ 232 µM) | 100 (≈ 232 µM) | Cc1cc(=O)oc2cc(Oc3nc(Nc4ccccc4)nc(N4CCOCC4)n3)ccc12 | 17 | 22 | 21 | 20 | 22 | 20
21 | 50 (≈ 106 µM) | 50 (≈ 106 µM) | 12.5 (≈ 26.5 µM) | 25 (≈ 52.9 µM) | 25 (≈ 52.9 µM) | 25 (≈ 52.9 µM) | CC(=O)N1CCN(c2nc(Nc3ccccc3)nc(Oc3ccc4c(C)cc(=O)oc4c3)n2)CC1 | 23 | 25 | 21 | 23 | 23 | 22
22 | 100 (≈ 225 µM) | 100 (≈ 225 µM) | 100 (≈ 225 µM) | 100 (≈ 225 µM) | 100 (≈ 225 µM) | 100 (≈ 225 µM) | Cc1cc(=O)oc2cc(Oc3nc(Nc4ccccc4)nc(N4CCN(C)CC4)n3)ccc12 | 20 | 20 | 16 | 21 | 16 | 19
